The source of these data is US20240287549A1, “METHODS AND COMPOSITIONS FOR EFFICIENT PRODUCTION OF BIOFUELS AND BIOPLASTICS FROM TOXIC FEEDSTOCKS” (Massachusetts Institute of Technology, priority 2021, published 2024).

Series [1] deals with prototrophic wildtype (WT) strain FY4/5. The series can be described thus: Constituent toxicity: ethanol titer of high-gravity fermentation in YSC with single inhibitors. Format: cell-based, Saccharomyces cerevisiae. To be noted: for effect of KCl alone on ethanol titer: plus 50 mM KCl only; for additional boost of ethanol production by K+/pH adjustment: 50 mM KCl and NH4OH to pH 6 vs unadjusted. As for the experimental part:
To systematically characterize the impact of these constituent toxicities, ethanol production was assessed in yeast synthetic complete medium (YSC) with the 3 inhibitors added individually at equimolar concentration. As a completely chemically-defined formulation with trace vitamins, minerals, and amino acids, YSC lacks the undefined extracts contained in “rich” media that could supply unknown components to boost or hinder tolerance. […] For the constituent toxicity studies, prototrophic strain FY4/5 was expanded in a starter culture of YSC containing 150 g/L glucose and grown overnight to approximately OD600=10. To mimic industrial high cell density conditions, 100 OD600 units of cells per fermentation were harvested, washed with an equal volume of room temperature distilled and deionized water, and cell pellets resuspended in 4 mL media for a production cell density of approximately OD600=25 (9.9 g DCW/L). Fermentation media consisted of 250 g/L glucose in YSC and were supplemented with (left to right in FIG. 1A) 6 mM NH4Cl, 50/6 mM KCl/NH4OH, 100/128 mM acetic acid/NH4Cl, 100/50/128 mM acetic acid/KCl/NH4Cl, 100/50/128 mM acetic acid/KCl/NH4OH, 100/11 mM furfural/NHCl, 100/50/11 mM furfural/KCl/NH4OH, 100/7 mM 2-furanmethanol (FF—OH)/NHCl, 100/50/7 mM FF—OH/KCl/NH4Cl, 100/50/7 mM FF—OH/KCl/NHOH, 100/7 mM 5-hydroxymethyl-furfural (HMF)/NH4Cl, 100/50/7 mM HMF/KCl/NHOH, 100/7 mM furan-2,5-dimethanol (HMF-OH)/NH4Cl, 100/50/7 mM HMF-OH/KCl/NH4Cl, or 100/50/7 mM HMF-OH/KCl/NH4OH.
Inhibitor supplementation for the additionally screened conditions in FIGS. 2A-2C were: 50/60 mM acetic acid/NHCl, 50/50/60 mM acetic acid/KCl/NH4OH, 150/180 mM acetic acid/NH4Cl, 150/50/180 mM acetic acid/KCl/NH4OH, 50/9 mM furfural/NH4Cl, 50/50/9 mM furfural/KCl/NH4OH, 50/6 mM FF—OH/NHCl, 50/50/6 mM FF—OH/KCl/NH4OH, 150/15 mM furfural/NH4Cl. 150/50/15 mM furfural/KCl/NH4OH, 150/9 mM FF—OH/NH4Cl, 150/50/9 mM FF—OH/KCl/NH4OH, 50/6 mM HMF/NHCl, 50/50/6 mM HMF/KCl/NH4OH, 50/6 mM HMF-OH/NH4Cl, 50/50/6 mM HMF-OH/KCl/NH4OH, 150/11 mM HMF/NH4Cl, 150/50/11 mM HMF/KCl/NH4OH, 150/9 mM HMF-OH/NHCl, or 150/50/9 mM HMF-OH/KCl/NH4OH. The “/” notation is used for visual abbreviation but indicates the addition of all components during preparation. […] Furfural (Sigma-Aldrich #185914), HMF (Sigma-Aldrich #H40807), FF—OH (Sigma-Aldrich #W249106), and HMF-OH (Santa Cruz Biotechnology #sc-210242, scbt.com) were added directly to media in their supplier, concentrated forms to minimize the addition of volume. […] Fermentation samples of 550 μL were harvested after 48 h, cells removed by centrifugation (16,870×g, 2 min), and supernatants 0.45 μm syringe-filtered (Fisher Scientific #50-109-8735, fishersci.com) into glass HPLC vials and stored at 4° C. until analysis. Similarly, pre-inoculation fermentation media were syringe-filtered and diluted 1:5 in water for HPLC verification of starting glucose and inhibitor concentrations.
Analytes were separated isocratically in 5 mM sulfuric acid at 65° C. using a flow rate of […]. Under these conditions, retention times were approximately as follows: glucose 9.2 min, xylose 9.9 min, lactic acid 13.1 min, glycerol 13.8 min, acetic acid 15.3 min, ethanol 22.3 min, HMF 30.2 min, and furfural 45.0 min.

The subject of series [2] is yeast. The following applies: previously established (ref. 16); cited from earlier work.
Series [3] deals with medium toxified to 40/28/55 mM furfural/HMF/acetic acid. The following applies: Saccharomyces cerevisiae, pH 6.
Series [4] relates to yeast. The following applies: prior experience.
Setting [5] is: 100 mM of the substance in YSC, 250 g/L glucose, 48 h, 30 °C, no K+/pH adjustment.
Where [6] appears, read: 100 mM of the substance, plus 50 mM KCl and NH4OH to pH 6.

Turning to `CC(=O)O` [acetic acid], the ethanol titer was determined as 17 ± 0.1 g/L in series [1] (setting [5]) and 109 ± 0.6 g/L in series [1] (setting [6]). Moreover, the “effect of KCl alone on ethanol titer” value in series [1] (100 mM of the substance) is given as “no amelioration”.
Regarding `O=Cc1ccco1` [furfural], the ethanol titer in series [1] (setting [5]) came to 4 ± 0.3 g/L.
In the case of `[Ca+2]` [Ca^2+], in the series with yeast [2], the effect on fermentation entry is recorded as “fermentation-neutral”.
For the compound `OCc1ccco1` [FF—OH, 2-furanmethanol], the figures for the ethanol titer in series [1] (setting [5]) and in series [1] (setting [6]) were 35 ± 0.4 g/L and 59 ± 0.5 g/L, respectively. The “effect of KCl alone on ethanol titer” value in series [1] (100 mM of the substance) is on record as “improvements intermediate to those with K+/pH together”. Moreover, the “additional boost of ethanol production by K+/pH adjustment” value in series [1] (100 mM) came to 69%. The “tolerated more than furfural at equimolar concentration (ethanol output)” value in series [1] (100 mM, FF-OH vs FF, no K+/pH adjustment) is given as 9 ×.
As to `OCc1ccc(CO)o1` [HMF-OH, furan-2,5-dimethanol], the ethanol titer in series [1] (setting [6]) was determined as 69 ± 0.6 g/L. In series [1] (100 mM of the substance), the “effect of KCl alone on ethanol titer” value is “improvements intermediate to those with K+/pH together”. Also, the “additional boost of ethanol production by K+/pH adjustment” value in series [1] (100 mM) is 39%. Also, the “higher ethanol titer than cognate aldehyde” value in series [1] (100 mM, HMF-OH vs HMF, no K+/pH adjustment) is listed as 45%.
On to `O=Cc1ccc(CO)o1` [HMF, 5-hydroxymethyl-furfural], for which the ethanol titer in series [1] (setting [5]) stood at 34 ± 0.3 g/L. Besides, in series [3], the “concentration tolerable by yeast for growth to commence” value is reported as “approximately 1.5 g/L”.
Take `Cl.N` [NH4Cl]: in the series with yeast [4], the “concentration tolerated with no detectable changes on ethanol titer” value is on record as “at least 200 mM”.
In the case of `[K+]` [K^+], in the series on yeast [2], the “concentration up to which effects are fermentation-beneficial” value is reported as “at least 110 mM”.
